One series addresses T1, 5HT1A receptor (Rattus norvegicus, UniProt P19327).
T1 construct: from tissue; host or cells: rat brain (hippocampal) membranes
T1 sequence (P19327 1-422): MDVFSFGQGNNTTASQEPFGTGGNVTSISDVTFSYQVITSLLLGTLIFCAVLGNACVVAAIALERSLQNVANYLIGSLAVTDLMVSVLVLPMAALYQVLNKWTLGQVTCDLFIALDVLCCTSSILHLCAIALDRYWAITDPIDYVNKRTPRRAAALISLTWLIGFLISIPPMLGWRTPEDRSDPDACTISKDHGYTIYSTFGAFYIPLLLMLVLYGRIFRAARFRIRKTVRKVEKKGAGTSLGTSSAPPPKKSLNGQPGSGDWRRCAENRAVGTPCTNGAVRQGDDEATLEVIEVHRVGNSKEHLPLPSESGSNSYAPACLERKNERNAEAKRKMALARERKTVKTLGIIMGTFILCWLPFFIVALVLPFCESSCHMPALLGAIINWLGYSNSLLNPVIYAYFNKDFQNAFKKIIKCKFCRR
Kind of series: 5-HT1A (serotonin) binding test. To be noted: binding to the 5HT1A receptor; read-out: 5HT1A (IC50 in nmol/l). The protocol:
Binding properties of the compounds of the formula I can be determined, for example, by the 5-HT1A (serotonin) binding test (Matzen et al., J. Med. Chem., 43 (2000), 1149-1157, in particular page 1156 with reference to Eur. J. Pharmacol.: 140 (1987), 143-155).
The binding properties to the 5HT1A receptor was determined with the aid of the 5-HT1A (serotonin) binding test (Matzen et al., J. Med. Chem., 43 (2000), 1149-1157, in particular page 1156 with reference to Eur. J. Pharmacol.: 140 (1987), 143-155).

For another series, the target named is T2, serotonin reuptake (Rattus norvegicus, UniProt P31652).
T2 construct: from tissue
T2 sequence (P31652 whole entry): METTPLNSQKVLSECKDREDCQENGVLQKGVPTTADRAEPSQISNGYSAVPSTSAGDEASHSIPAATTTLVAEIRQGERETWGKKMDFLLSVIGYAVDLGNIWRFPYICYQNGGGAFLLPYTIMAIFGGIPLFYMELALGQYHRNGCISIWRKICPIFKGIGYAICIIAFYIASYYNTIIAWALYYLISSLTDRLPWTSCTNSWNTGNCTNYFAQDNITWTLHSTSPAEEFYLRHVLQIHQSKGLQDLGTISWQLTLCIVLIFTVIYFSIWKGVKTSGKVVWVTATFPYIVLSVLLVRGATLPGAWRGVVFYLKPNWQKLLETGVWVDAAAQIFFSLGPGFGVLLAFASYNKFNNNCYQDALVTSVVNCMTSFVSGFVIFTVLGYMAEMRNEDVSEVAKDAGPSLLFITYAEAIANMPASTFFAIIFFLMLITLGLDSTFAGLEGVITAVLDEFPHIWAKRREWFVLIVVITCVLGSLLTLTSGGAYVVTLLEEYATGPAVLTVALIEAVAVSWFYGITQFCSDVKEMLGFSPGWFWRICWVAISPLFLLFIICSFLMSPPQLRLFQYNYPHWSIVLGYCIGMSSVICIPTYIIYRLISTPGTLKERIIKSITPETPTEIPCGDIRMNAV
Kind of series: Serotonin reuptake inhibition by synaptosomal uptake inhibition (Wong et al.). In kind it is biochemical. Conditions: read-out: SSRI (IC50 in nmol/l). The source says: For ex-vivo detection of serotonin reuptake inhibition, use can be made, for example, of synaptosomal uptake inhibition (Wong et al., Neuropsychopharmacol. 8 (1993), 23-33) and p-chloroamphetamine antagonism (Fuller et al., J. Pharmacol. Exp. Ther. 212 (1980), 115-119).
The serotonin reuptake inhibition was investigated with the aid of synaptosomal uptake inhibition by the method of Wong et al. (Neuropsycho-pharmacol. 8 (1993), 23-33).

The target in the next series is 5-HT4 receptor (UniProt O70528). The series can be described thus: 5-HT4 receptor binding test according to Grossman et al. Conditions: binding to the 5-HT4 receptor; read-out: 5HT4 (IC50 in nmol/l). The source says: For determination of the binding properties of the compounds of the formula I to the 5-HT4 receptor, use can be made of the test according to Grossman et al. (Grossman et al., Br. J. Pharmacol. 109, (1993), 618-24).
In order to determine the binding properties to the 5-HT4 receptor, use was made of the test in accordance with Grossman et al. (Grossman et al., Br. J. Pharmacol. 109, (1993), 618-24).

The structures appear in SMILES notation.

One may read the melting point as the temperature, or range, at which the solid turns liquid. `N#Cc1ccc2[nH]cc(CCCCNCC3CCOc4ccccc4O3)c2c1` (stereo not shown) (hydrate or solvate) [EMD 87322] yielded a melting point of 78 °C.

Take `N#Cc1ccc2[nH]cc(CCCCNC3COc4ccccc4OC3)c2c1` [EMD 76066, N-(3,4-dihydro-2H-1,5-benzodioxepin-3-yl)-4-(5-cyano-3-indole)butylamine]: the melting point fell in the range of 166 to 168 °C. The IC50 at 5HT1A receptor worked out at 0.5 nmol/L. Also, the IC50 on serotonin reuptake was 8 nmol/L.

In the case of `Cc1ccc2c(c1)OCC(NCCCCc1c[nH]c3ccc(C#N)cc13)CO2` (stereo not shown) [EMD 85350, 3-{4-[7-methyl-3,4-dihydro-2H-1,5-benzodioxepin-3-ylamino]butyl}indole-5-carbonitrile], the IC50 on 5HT1A receptor came to 3 nmol/L; at serotonin reuptake it was 4 nmol/L.

For `Cc1cccc2c1OCC(NCCCCc1c[nH]c3ccc(C#N)cc13)CO2` (stereo not shown) [EMD 87319, 3-{4-(6-methyl-3,4-dihydro-2H-1,5-benzodioxepin-3-ylamino)butyl}indole-5-carbonitrile], the results for the IC50 on 5HT1A receptor and at serotonin reuptake were 2 nmol/L and 3 nmol/L, respectively.

Turning to `N#Cc1ccc2[nH]cc(CCCCNCC3CCOc4ccccc4O3)c2c1` (stereo not shown) [EMD 87322], the IC50 at 5HT1A receptor amounted to 4 nmol/L; on 5-HT4 receptor, 8.4 nmol/L; at serotonin reuptake it was 0.6 nmol/L.

Regarding `COc1cccc2c1OCC(NCCCCc1c[nH]c3ccc(C#N)cc13)CO2` (stereo not shown) [EMD 87326, 3-[4-(6-methoxy-3,4-dihydro-2H-1,5-benzodioxepin-3-ylamino)butyl]indole-5-carbonitrile], the IC50 at 5HT1A receptor was found to be 0.6 nmol/L; at serotonin reuptake, 1 nmol/L.

The record behind these values is patent US7253202B2, “Substituted benzodioxepines” (Merck Patent GmbH, priority 2002, dated 2007).
